Source: patent US20250268873A1, “COMBINATION OF DUAL ATM AND DNA-PK INHIBITORS AND IMMUNOTHERAPEUTIC AGENTS FOR USE IN CANCER THERAPY” (XRAD THERAPEUTICS, INC., priority 2021, published 2025)

Tested on: TBK1
Assay: Immunoblot of TBK1 phosphorylation in HCT116 cells
Type: cell-based, human
Conditions: HCT116 p53 wild-type and p53−/− cells; 1 μM single agents, combination 0.5 or 1 micromolar each
Excerpt: Antibodies recognizing phosphorylated/activated ATM (S1981, #ab81292) and DNA-PKcs (S2056, #ab18192) were purchased from Abcam Biotechnology (Cambridge, MA). Antibodies to ATM (#A1106) and DNA-PKcs (#ab1832) were from Sigma and Abcam, respectively. Phospho-KAP1 (S824, #A300-767A) and KAP1 (A700-014) antibodies were from Bethyl Labs (Montgomery, TX). Phospho-TBK1 (#5483), cGAS (#15102), and pSTING (S366, #19781S) antibodies were from Cell Signaling Technology (CST) (Danvers, MA). STING (PA5-23381) antibodies were from ThermoFisher Scientific (Waltham, MA), and actin (#A5316) antibodies were from Sigma. All antibodies were diluted 1:1000 with the exception of actin which was diluted 1:3000 in 1×TBST (1×TBS-10×TBS, (Corning, 46-012-CM), 0.05% Tween-20 (P7949) Sigma and 1% BSA. Secondary antibodies used were (a) Li-Cor method-Goat anti-Rabbit (926-3221) and Goat anti-Mouse (926-68020) Li-Cor (b) ECL method: Anti-rabbit IgG, HRP-linked (#7074S), CST.
Cells were pretreated with Compound 569 at 20, 100, 500, or 1000 nM or DMSO for 30 min and then irradiated with 0 or 10 Gy (XRAD 160, Precision X Ray) as shown in FIG. 1. In FIG. 3, cells were pretreated with Compound 569 at 1 μM, ATMi (AZD0156) at 1 μM, DNA-PKi (peposertib) at 1 μM as single agents or DMSO or with ATMi and DNA-PKi in combination at 0.5 micromolar each or at 1 micromolar each for 30 min and then irradiated with 0 or 10 Gy (XRAD 160, Precision X Ray) as shown in FIG. 1. One hour after IR, cells were lysed in RIPA buffer ([…], pH 8.0, 150 mM NaCl, 0.1% SDS, 0.5% sodium deoxycholate, 1% IGEPAL® CA-630 (Sigma, 18896) for 20 min at 4° C. in the presence of protease and phosphatase inhibitor cocktails (Roche, #04693159001 & #04906837001). Cell lysates were centrifuged at 13,200 g for 10 min at 4° C. and supernatants were analyzed for protein content using BCA assay (Pierce™ BCA Protein Assay Kit, cat #23227, ThermoFisher Waltham, MA 02451) and equal amounts of protein/lane were used for subsequent immunoblot analyses. Proteins were denatured by adding NuPAGE LSD Sample Buffer [4×] […]

CN(C)CCCOc1ccc(-c2ccc3ncc4c(c3c2)n(C2CCOCC2)c(=O)n4C)cn1 [AZD0156]
phosphorylation of TBK1: induction of phosphorylation of TBK1

COc1ccc([C@@H](O)c2cc(-c3ncnc4cc(N5CCOCC5)ccc34)c(F)cc2Cl)nn1 [peposertib]
phosphorylation of TBK1: induction of phosphorylation of TBK1
